# Reference: BindingDB's records for doi:10.1016/s0960-894x(98)00284-4 (Glaxowellcome, 1998)
# Biological target: Glutamate receptor ionotropic, NMDA 1 (Rattus norvegicus, UniProt P35439)
# Experiment: ChEBML_140329
# Protocol: In vitro affinity of compound for the glycinergic site associated with NMDA receptor was assessed by inhibition of the binding of [3H]glycine
row,Ki [nM],Structure (SMILES)
1,7.5,O=C(O)c1[nH]c2cc(Cl)cc(Cl)c2c1/C=C1\CCN(c2ccccc2)C1=O
2,7.3,O=C(O)c1[nH]c2cc(Cl)cc(Cl)c2c1/C=C1\CCCN(c2ccccc2)C1=O
